The results in this text go back to patent US10117866B2, “Promoting axon regeneration in the adult CNS through control of protein translation” (CHILDREN'S MEDICAL CENTER CORPORATION, priority 2008, dated 2018).

The target of one assay is PTEN (Homo sapiens, UniProt P60484). Briefly: PTEN inhibition assay (malachite green phosphate release), IC50 determination. In kind it is biochemical.
Chain of PTEN (P60484 whole entry, species assumed): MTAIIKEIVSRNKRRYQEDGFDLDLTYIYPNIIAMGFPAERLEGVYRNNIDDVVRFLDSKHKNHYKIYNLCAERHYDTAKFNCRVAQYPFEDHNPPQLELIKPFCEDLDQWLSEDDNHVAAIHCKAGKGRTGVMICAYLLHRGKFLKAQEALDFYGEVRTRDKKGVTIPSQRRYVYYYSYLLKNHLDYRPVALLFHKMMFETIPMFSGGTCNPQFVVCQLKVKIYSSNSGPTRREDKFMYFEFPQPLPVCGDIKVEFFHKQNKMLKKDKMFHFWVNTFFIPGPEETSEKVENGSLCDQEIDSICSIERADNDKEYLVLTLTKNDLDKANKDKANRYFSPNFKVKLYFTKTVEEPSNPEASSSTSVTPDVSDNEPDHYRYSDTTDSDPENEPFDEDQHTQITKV
Conditions: not given
Here is the method:
PTEN inhibitors are evaluated in an inhibition assay conducted in half-volume 96 well plates in 25 ul total volume per well containing 2 mM dithiothreitol (DTT) and 0.1 mM Tris buffer, pH 8.0 and up to 3 ug total protein of PTEN. Small volumes of the test inhibitor candidates (stock concentrated solutions of 25 mM in DMSO) are mixed with the PTEN solution at room temperature for about 10 minutes and then substrate is added. The reaction mix is then incubated in 37° C. for 20 minutes. Subsequent to this a 100 ul aliquot of malachite green buffer (Upstate, Charlottesville, Va.) is added to develop the color in the dark at room temperature (this solution also stops the dephosphorylation reaction). A SpectraMax Plus spectrophotometric plate reader (Molecular Devices, Sunnyvale, Calif.) is used to measure the optical density at 650 nanometers. […]
To determine the dose response of potential PTEN inhibitors, doses of test compounds ranging from 1 nM to 250 uM (final reaction mix concentrations) are evaluated in the general PTEN inhibition assay (supra). […] Once the concentration range is determined, at which PTEN activity changes dramatically, two additional concentration data points within this range are added and the PTEN inhibition assay is then rerun for the second round. […]
By IC50 is commonly meant the concentration at which inhibition is half-maximal. The molecule `CC(C)(C)C(=O)Nc1cnc2c(c1)C(=O)C(=O)c1cccnc1-2` returned an IC50 of 2000 nM. The same measure, in the same setting: the figure for `O=C(COc1ccccc1)Nc1cnc2c(c1)C(=O)C(=O)c1cccnc1-2` is 300 nM.

The subject of a further assay is dorsal corticospinal tract (CST) axons. Briefly: Spinal injury (dorsal corticospinal tract transection) in rats, intrathecal or intravenous PTEN inhibitor. Format: in vivo, Sprague Dawley rats. The settings on record: intrathecal or intravenous administration, rat spinal injury model. The source says: Methodology for this animal study was adapted from Nash et al (J. Neurosci (2002) 22:7111-7120), Luo et al (Molecular Pain (2005) 1:29), and Obata et al (J. Neurosci. (2004) 24:10211-22).
Adult Sprague Dawley rats ([…]) are trained and tested in a directed forepaw reaching (DFR) apparatus which measures grasping ability. The apparatus, which is described in detail by Nash et al., supra, is a box that consists of two compartments: a main compartment for housing the rats and a minor compartment for the food, separated by a PLEXIGLAS™ divider. The minor compartment is subdivided into slots of equal size, each holding a pellet of food. Between the slots and the PLEXIGLAS™ there is a gap. The apparatus is configured such that in order to retrieve a food pellet from a slot, a rat must extend a forelimb through a hole in the PLEXIGLAS™ divider, and grasp the pellet and lift it over the gap and out of the slot. If the rat merely rakes the food in the slot towards the hole in the PLEXIGLAS™, the food will drop from the slot into the gap and fall to the floor of the minor compartment. The floor of the minor compartment can be configured to allow a rat to retrieve food that drops or it can be lowered to prevent the rat from reaching dropped food. Prior to inducing spinal injury, the rats are food restricted, receiving ˜[…] body weight per day, before and throughout training and testing. Weight is monitored to ensure that rats are reduced to no less than 80% of their original body weight at any time. All rats are given shaping periods for 2-3 d in the box to allow them to learn the task while they become familiar with the testing situation. Animals are trained twice per day for 5 d and then tested twice per day for 5 d, and presurgical DFR data is collected. During the testing period, rats are given 5 min to complete the task and are allowed to make as many attempts as they want during this time period. Rats are required to return to at least 95% of their original weight to ensure that they are healthy before undergoing surgery.
Rats are randomly assigned to control or experimental groups. Sham control rats undergo surgical procedure without lesioning, and with or without placement of a mini osmotic pump (Alzet type 2001; Durect, Cupertino, Calif.). Lesioned control rats receive no treatment, tail vein injection with vehicle only treatment, insertion of a mini osmotic pump only treatment, or insertion of a mini osmotic pump with vehicle only treatment. After anesthesia with isoflurane, the rats are placed on an operating board in such a way as to bend the cervical spinal cord for maximum exposure. A laminectomy is performed exposing the dorsum of the spinal cord between C2 and C4. […]
As for `O.O.O.OO.OO.[K+].[OH-].[V].c1cnc2c(c1)ccc1cccnc12` [bpV(phen), potassium bisperoxo(1,10-phenanthroline)oxovanadate (V)], the “axonal regeneration after spinal injury” value is listed as “can be promoted”. As for `O.O.O=C([O-])c1ccccn1.OO.OO.[K+].[K+].[OH-].[V]` [bpV(pic), dipotassium bisperoxo(picolinato)oxovanadate (V)], the “axonal regeneration after spinal injury” value was “can be promoted”. Still for that read-out and setting: the entry for “dipotassium bisperoxo(5-hydroxypyridine-2-carboxyl)oxovanadate (V) [bpV(HOpic)]” is “can be promoted”. On to “potassium bisperoxo(bipyridine)oxovanadate (V) [bpV(bipy)]”, for which the “axonal regeneration after spinal injury” value is on record as “can be promoted”.
